Activity calls are given as the source filed them. The rule behind the calls is not given here.
Key:
Ralstonia solanacearum [1] = format: functional
Ralstonia solanacearum [2] = tested on: Ralstonia solanacearum
Ralstonia solanacearum [3] = tested on: Ralstonia solanacearum; remark: listed apart in the source
Ralstonia solanacearum [4] = format: functional; remark: listed apart in the source
Ralstonia solanacearum [5] = format: functional; remark: listed apart in the source
Ralstonia solanacearum [6] = format: functional; remark: listed apart in the source

| SMILES | diameter of the inhibition zone (DIZ) (Ralstonia solanacearum [1]) | DIZ (Ralstonia solanacearum [2]) | DIZ (Ralstonia solanacearum [3]) | also measured |
| --- | --- | --- | --- | --- |
| COC(=O)c1ccc(OC)cc1O | 11 mm | inactive |  |  |
| CCCCCCCCCCCCOC(=O)c1cc(O)c(O)c(O)c1 |  | inactive | inactive |  |
| CCCCCCCCCOC(=O)c1ccc(O)cc1 |  | inactive | inactive |  |
| COC(=O)c1cc(OC)cc(OC)c1 |  | inactive | inactive |  |
| COC(=O)c1ccccc1O |  | inactive | inactive |  |
| COc1cc(/C=C/C(=O)O)cc(OC)c1O |  | inactive | inactive |  |
| COc1cc(/C=C/C(=O)O)ccc1O |  | inactive | inactive |  |
| COc1ccc(/C=C/C(=O)O)cc1O |  | inactive | inactive |  |
| C[C@@H]1O[C@@H](OC[C@H]2O[C@@H](Oc3c(-c4ccc(O)c(O)c4)oc4cc(O)cc(O)c4c3=O)[C@H](O)[C@@H](O)[C@@H]2O)[C@H](O)[C@H](O)[C@H]1O |  | inactive | inactive |  |
| O=C(/C=C/c1ccc(O)c(O)c1)O[C@@H]1C[C@](O)(C(=O)O)C[C@@H](O)[C@H]1O |  | inactive | inactive |  |
| O=C(O)/C=C/c1ccc(O)c(O)c1 |  | inactive | inactive |  |
| O=c1c(O)c(-c2ccc(O)c(O)c2)oc2cc(O)cc(O)c12 |  | inactive | inactive |  |
| O=c1oc2c(O)c(O)cc3c(=O)oc4c(O)c(O)cc1c4c23 |  | inactive | inactive |  |
| O=C(O)c1cccc(O)c1 [3-HYDROXYBENZOIC ACID] | 14 mm | inactive |  |  |
| O=C(O)/C=C/c1ccccc1 [CINNAMIC ACID] | 13 mm | inactive |  |  |
| O=C(O)/C=C/c1ccc(O)cc1 [COUMARIC ACID] | 11 mm | inactive |  |  |
| CCOC(=O)c1cc(O)c(O)c(O)c1 [ETHYLGALLATE] | 42 mm |  |  | diameter of the inhibition zone (DIZ) (Ralstonia solanacearum [4]): 18 mm |

| SMILES | diameter of the inhibition zone (DIZ) (Ralstonia solanacearum [1]) | DIZ (Ralstonia solanacearum [2]) | DIZ (Ralstonia solanacearum [3]) | also measured |
| --- | --- | --- | --- | --- |
| CCOC(=O)c1ccc(O)cc1 [ETHYLPARABEN] | 29 mm | inactive |  |  |
| COC(=O)c1cc(O)c(O)c(O)c1 [GALLIC ACID METHYL ESTER] | 54 mm |  |  | diameter of the inhibition zone (DIZ) (Ralstonia solanacearum [4]): 22 mm; diameter of the inhibition zone (DIZ) (Ralstonia solanacearum [5]): 18 mm; diameter of the inhibition zone (DIZ) (Ralstonia solanacearum [6]): 11 mm |
| O=C(O)c1cc(O)c(O)c(O)c1 [GALLIC ACID] | 12 mm | inactive |  |  |
| COC(=O)c1cccc(O)c1O [METHYL 2,3-DIHYDROXYBENZOATE] | 58 mm |  |  | diameter of the inhibition zone (DIZ) (Ralstonia solanacearum [4]): 13 mm |
| COC(=O)c1ccc(O)cc1O [METHYL 2,4-DIHYDROXYBENZOATE] | 32 mm | inactive |  |  |
| COC(=O)c1cc(O)ccc1O [METHYL 2,5-DIHYDROXYBENZOATE] | 43 mm | inactive |  |  |
| COC(=O)c1cc(O)cc(O)c1 [METHYL 3,5-DIHYDROXYBENZOATE] | 18 mm | inactive |  |  |
| COC(=O)c1cccc(O)c1 [METHYL 3-HYDROXYBENZOATE] | 23 mm | inactive |  |  |
| COC(=O)c1ccc(O)c(O)c1 [METHYL PROTOCATECHUATE] | 37 mm |  |  | diameter of the inhibition zone (DIZ) (Ralstonia solanacearum [4]): 11 mm |
| COC(=O)c1ccc(O)c(OC)c1 [METHYL VANILLATE] | 15 mm | inactive |  |  |
| COC(=O)c1ccc(O)cc1 [METHYLPARABEN] | 36 mm | inactive |  |  |
| O=C(O)/C=C/c1ccccc1O [O-COUMARIC ACID] | 16 mm | inactive |  |  |
| CCCCCCCCOC(=O)c1cc(O)c(O)c(O)c1 [OCTYL_GALLATE] | 12 mm |  |  | diameter of the inhibition zone (DIZ) (Ralstonia solanacearum [4]): 11 mm |
| O=C(O)c1ccc(O)cc1 [PARABEN] | 13 mm | inactive |  |  |
| CCCOC(=O)c1cc(O)c(O)c(O)c1 [PROPYL GALLATE] | 31 mm |  |  | diameter of the inhibition zone (DIZ) (Ralstonia solanacearum [4]): 11 mm |
| CCCOC(=O)c1ccc(O)cc1 [PROPYLPARABEN] | 17 mm | inactive |  |  |
| O=C(O)c1ccccc1O [SALICYLIC ACID] | 16 mm |  |  |  |
